From patent US5329002A, “Antibacterial cephalosporin compounds” (Hoffmann-La Roche Inc., priority 1990, dated 1994)
Where a name gives a salt, the structure may show the parent alone. Read-outs that look alike come from different tables or passages of the source.

Assays:
Format in all cases: cell-based
E. faecalis ATCC 29212 = test: In vitro MIC, Broth Dilution Method, E. faecalis ATCC 29212; conditions: Enterococcus faecalis, ATCC29212
Description: (§1) The in vitro activity of the compounds of the present invention as measured by the Minimum Inhibitory Concentration (MIC) in micrograms/ml utilizing the Broth Dilution Method against a variety of Gram-positive and Gram-negative organisms, is as follows:
(§2) Concentration (MIC) in micrograms/ml utilizing the Broth Dilution Method against a variety of Gram-positive and Gram-negative organisms, is as follows:
(§3) In Vitro MIC (μg/ml), Broth Dilution Method

E. coli TEM 1 = test: microbe, parasite or virus in culture; conditions: Escherichia coli, TEM1, read-out: In Vitro MIC
Description: as §1, §2, §3

P. aeruginosa 8710 = test: In vitro MIC, Broth Dilution Method, P. aeruginosa 8710; conditions: Pseudomonas aeruginosa
Description: as §1, §2, §3

E. cloacae P99 = test: In vitro MIC, Broth Dilution Method, E. cloacae P99; conditions: Enterobacter cloacae, P99, read-out: In Vitro MIC
Description: as §1, §2, §3

P. aeruginosa 18 S/H = test: In vitro MIC, Broth Dilution Method, P. aeruginosa 18 S/H; conditions: Pseudomonas aeruginosa
Description: as §1, §2, §3

E. coli ATCC 25922 = test: In vitro MIC, Broth Dilution Method, E. coli ATCC 25922; conditions: Escherichia coli
Description: as §1, §2, §3

S. aureus ATCC 29213 = test: In vitro MIC, Broth Dilution Method, S. aureus ATCC 29213; conditions: Staphylococcus aureus
S. marcescens 1071 = test: In vitro MIC, Broth Dilution Method, S. marcescens 1071
S. aureus 1059B = test: In vitro MIC, Broth Dilution Method, S. aureus 1059B; conditions: Staphylococcus aureus
S. pneumoniae 6301 = test: In vitro MIC, Broth Dilution Method, S. pneumoniae 6301
Description: as §1, §2, §3

S. aureus 95 = test: In vitro MIC, Broth Dilution Method, S. aureus 95
Description: as §1, §2, §3

E. cloacae 5699 = test: In vitro MIC, Broth Dilution Method, E. cloacae 5699
Description: as §1, §2, §3

[1] = ATCC25922, read-out: In Vitro MIC
[2] = ATCC29213, Broth Dilution Method, S. aureus ATCC 29213, read-out: In Vitro MIC
[3] = Serratia marcescens, Broth Dilution Method, S. marcescens 1071, read-out: In Vitro MIC
[4] = Streptococcus pneumoniae, 6301, read-out: In Vitro MIC
[5] = Staphylococcus aureus, Broth Dilution Method, S. aureus 95, read-out: In Vitro MIC
[6] = Enterobacter cloacae, Broth Dilution Method, E. cloacae 5699, read-out: In Vitro MIC
[7] = Streptococcus pneumoniae, Broth Dilution Method, S. pneumoniae 6301, read-out: In Vitro MIC
[8] = Staphylococcus aureus, 95, read-out: In Vitro MIC
[9] = Enterobacter cloacae, 5699, read-out: In Vitro MIC

SMILES | MIC (E. faecalis ATCC 29212) [mg/L] | MIC (E. coli TEM 1) [mg/L] | MIC (P. aeruginosa 8710) [mg/L] | MIC (E. cloacae P99) [mg/L] | MIC (P. aeruginosa 18 S/H) [mg/L] | MIC (E. coli ATCC 25922; [1]) [mg/L] | MIC (S. aureus ATCC 29213; [2]) [mg/L] | MIC (S. marcescens 1071; [3]) [mg/L] | MIC (S. aureus 1059B) [mg/L] | MIC (S. pneumoniae 6301; [4]) [mg/L] | MIC (S. aureus 95; [5]) [mg/L] | MIC (E. cloacae 5699; [6]) [mg/L] | MIC (S. pneumoniae 6301; [7]) [mg/L] | MIC (S. aureus 95; [8]) [mg/L] | MIC (E. cloacae 5699; [9]) [mg/L] | MIC (E. coli ATCC 25922; ATCC25922, Broth Dilution Method, E. coli ATCC 25922, read-out: In Vitro MIC) [mg/L] | MIC (S. aureus ATCC 29213; ATCC29213, read-out: In Vitro MIC) [mg/L] | MIC (S. marcescens 1071; Serratia marcescens, 1071, read-out: In Vitro MIC) [mg/L]
CO/N=C(\C(=O)N[C@@H]1C(=O)N2C(C(=O)O)=C(C[N+]3(C)CCN(c4c(F)cc5c(=O)c(C(=O)O)cn(CCF)c5c4F)CC3)CS[C@H]12)c1csc(N)n1 [Compound A, [6R-[6α,7β(Z)]]-1-[7-[[[(2-amino-4-thiazolyl)(methoxyimino)acetyl]amino]-2-carboxy-8-oxo-5-thia-1-azabicyclo[4.2.0]oct-2-en-3-yl]methyl]-4-[3-carboxy-6,8-difluoro-1-(2-fluoroethyl)-1,4-dihydro-4-oxo-7-quinolinyl]-1-methylpiperazinium iodide] | 64 | 0.25 | 8 | 0.5 | 8 | 0.25 | 4 | 0.5 | 2 | 0.063 | 4 | 0.5 | – | – | – | – | – | –
C[N+]1(CC2=C(C(=O)O)N3C(=O)[C@@H](NC(=O)COc4ccccc4)[C@H]3SC2)CCN(c2c(F)cc3c(=O)c(C(=O)O)cn(CCF)c3c2F)CC1.[I-] [Compound B, (6R-trans)-4-[3-carboxy-1-(2-fluoroethyl)-6,8-difluoro-1,4-dihydro-4-oxoquinolin-7-yl]-1-[[2-carboxy-8-oxo-7-[(phenoxyacetyl)amino]-5-thia-1-azabicyclo-[4.2.0]oct-2-en-3-yl]methyl]-1-methyl-piperazinium iodide] | 32 | 0.5 | 8 | 0.5 | 4 | 0.5 | – | – | – | – | – | – | 0.25 | 1 | 0.5 | – | – | –
CC(C)(O/N=C(\C(=O)N[C@@H]1C(=O)N2C(C(=O)[O-])=C(C[N+]3(C)CCN(c4c(F)cc5c(=O)c(C(=O)O)cn(CCF)c5c4F)CC3)CS[C@H]12)c1csc(N)n1)C(=O)O [Compound C, [6R-[6α,7β(Z)]]-1-[[7-[[[(2-amino-4-thiazolyl)[1-(1-carboxy-1-methyl)ethoxy]imino]acetyl]amino]-8-oxo-5-thia-1-azabicyclo-[4.2.0]oct-2-en-3-yl]methyl]-4-[3-carboxy-1-(2-fluoroethyl)-6,8-difluoro-1,4-dihydro-4-oxoquinolin-7-yl]-1-methylpiperazinium hydroxide inner salt monosodium salt] | 32 | 0.5 | 8 | 2 | 8 | – | – | – | 8 | – | – | – | 1 | 4 | 0.5 | 0.25 | 4 | 0.5
CCn1cc(C(=O)O)c(=O)c2cc(F)c(N3CC[N+](C)(CC4=C(C(=O)O)N5C(=O)[C@@H](NC(=O)/C(=N\OC)c6csc(N)n6)[C@H]5SC4)CC3)cc21 [Compound D, [6R-[6α,7β(Z)]]-1-[[7-[[(2-amino-4-thiazolyl)(methoxyimino)acetyl]amino]-2-carboxy-8-oxo-5-thia-1-azabicyclo[4.2.0]-oct-2-en-3-yl]methyl]-4-(3-carboxy-1-ethyl-6-fluoro-1,4-dihydro-4-oxo-7-quinolinyl)-1-methylpiperazinium iodide] | 32 | 0.5 | 8 | 1 | 32 | 0.5 | 4 | 0.5 | 2 | 0.063 | 4 | 1 | – | – | – | – | – | –
C[N+]1(CC2=C(C(=O)O)N3C(=O)[C@@H](NC=O)[C@H]3SC2)CCN(c2c(F)cc3c(=O)c(C(=O)O)cn(CCF)c3c2F)CC1 [Compound E, trifluoroacetate salt] | 32 | 0.5 | 8 | 0.5 | 8 | 0.5 | 0.5 | 1 | 0.5 | – | 1 | – | 1 | – | 0.5 | – | – | –
